Here are results for 26 compounds from ChEMBL document CHEMBL2331519, “Sesquiterpenes from the rhizomes of Curcuma heyneana” (J Nat Prod, 2013).

pIC50: −log10 of the molar value. Bounds are passed on as bounds.

Assay [1] concerns the target T1, Tyrosine-protein phosphatase non-receptor type 1 (Homo sapiens) (UniProt P18031).
T1 sequence (whole entry): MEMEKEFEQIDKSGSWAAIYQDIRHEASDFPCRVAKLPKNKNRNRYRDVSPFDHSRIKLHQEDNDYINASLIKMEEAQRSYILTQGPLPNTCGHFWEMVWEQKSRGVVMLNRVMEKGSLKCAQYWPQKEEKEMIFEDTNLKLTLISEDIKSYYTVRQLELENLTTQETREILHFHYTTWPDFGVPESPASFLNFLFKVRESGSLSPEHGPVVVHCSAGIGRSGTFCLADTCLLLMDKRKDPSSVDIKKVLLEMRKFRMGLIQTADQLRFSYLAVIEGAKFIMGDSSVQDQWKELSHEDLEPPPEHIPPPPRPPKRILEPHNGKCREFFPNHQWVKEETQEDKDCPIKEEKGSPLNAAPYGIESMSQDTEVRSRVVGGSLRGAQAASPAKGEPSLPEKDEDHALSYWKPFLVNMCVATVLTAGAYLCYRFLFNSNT
Nature of the assay: Inhibition of PTP1B (unknown origin) assessed as decrease in p-nitrophenol production from pNPP substrate at 25 ug/ml after 30 mins by HTS7000 bioassay reader analysis.

In assay [2] the target is T2, Tyrosine-protein phosphatase non-receptor type 2 (Homo sapiens, UniProt P17706).
T2 sequence (P17706 whole entry): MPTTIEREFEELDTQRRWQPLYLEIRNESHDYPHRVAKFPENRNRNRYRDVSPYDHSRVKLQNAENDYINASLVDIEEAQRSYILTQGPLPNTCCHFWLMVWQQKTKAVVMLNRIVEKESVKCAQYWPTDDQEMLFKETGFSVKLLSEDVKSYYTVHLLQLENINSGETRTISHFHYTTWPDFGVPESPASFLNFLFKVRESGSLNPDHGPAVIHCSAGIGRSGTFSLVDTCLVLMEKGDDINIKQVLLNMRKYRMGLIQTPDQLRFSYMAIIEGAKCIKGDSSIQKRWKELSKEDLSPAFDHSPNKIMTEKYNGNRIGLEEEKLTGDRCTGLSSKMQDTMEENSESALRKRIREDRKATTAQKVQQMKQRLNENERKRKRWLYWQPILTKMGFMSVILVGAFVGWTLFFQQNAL
Nature of the assay: (§1) Inhibition of TCPTP (unknown origin) assessed as decrease in p-nitrophenol production from pNPP substrate after 30 mins by HTS7000 bioassay reader analysis.

For assay [3], the target named is T3, Tyrosine-protein phosphatase non-receptor type 1 (Homo sapiens, UniProt P18031).
T3 sequence (P18031 whole entry): T1 sequence (whole entry)
Nature of the assay: Inhibition of PTP1B (unknown origin) assessed as decrease in p-nitrophenol production from pNPP substrate after 30 mins by HTS7000 bioassay reader analysis.

The target of assay [4] is T4, Tyrosine-protein phosphatase non-receptor type 2 (Homo sapiens) (UniProt P17706).
T4 sequence (whole entry): T2 sequence (P17706 whole entry)
The description is as §1.

Broadly, the inhibition is the percentage by which the read-out fell short of the control. By pIC50 is commonly meant the negative decadic logarithm of the IC50, by convention in mol/L.

Regarding `CC(C)=C1C[C@H]2[C@H](CC[C@]2(C)O)[C@@](C)(O)CC1=O`, in assay [1], the inhibition was below 65%. For `CC(C)=C1C[C@H]2[C@@H](CC[C@]2(C)O)C(CO)=CC1=O`, the inhibition in assay [1] is below 65%.

Regarding `CCCCCCCCCCCCCCCC(=O)C1=C(O)[C@@H](CO)OC1=O`, the pIC50 in assay [2] was 5.29; in assay [3], 5.25. Further, the inhibition in assay [1] was 99.1%. `C=C(C)[C@@H]1CC[C@]2(C)OC(=O)C(=C(C)C)C[C@@H]12`: the inhibition in assay [1] was below 65%. Same read-out and setting: with `CC(C)=C1C[C@@H](O)[C@](C)(O)CC[C@H](O)/C(C)=C\C1=O` the figure was below 65%. Turning to `CC1=CC(=O)C(=C(C)C)C[C@H]2[C@H]1CC[C@]2(C)O` [PROCURCUMENOL], the figures for the pIC50 in assay [2] and in assay [3] were 4.57 and 4.34, respectively. The figures for the inhibition result in assay [4] and in assay [1] were “Dose-dependent effect” and 69.3%, respectively. As for `CC(C)=C1C[C@H]2[C@@H](CC[C@]2(C)O)[C@](C)(O)CC1=O`, the inhibition in assay [1] is below 65%.

Take `C=C(C)[C@@H]1CC[C@@]2(C)OC(=O)C(=C(C)C)C[C@@H]12`: the inhibition in assay [1] was below 65%. On the same count and under the same terms, with `C=C(C)[C@@H]1CC[C@@H](C)[C@@]12C=C(C(C)(C)O)C(=O)O2` the figure was below 65%. In the case of `CC(C)=C1C[C@@H](O)[C@@](C)(O)CC[C@H](O)/C(C)=C\C1=O` [HEYNEANONE A], the pIC50 in assay [2] was 4.21; in assay [3], 4.37. For the same compound, the inhibition result in assay [4] is “Dose-dependent effect”; in assay [1], 77.5%.

Regarding `C=C1C[C@]2(O)O[C@@]3(CC2=C(C)C)[C@@H](C)CC[C@@H]13`, the inhibition in assay [1] is below 65%. The same measure, in the same setting: with `CC1=C[C@@]2(O)O[C@@]3(C/C2=C(/C)CO)[C@@H](C)CC[C@@H]13` the figure was below 65%. Consider `C=C1CC[C@H]2C(C)(C)CCC[C@]2(C)[C@H]1/C=C/C(C)=O`, for which the pIC50 was 5.03 in assay [2] and 4.83 in assay [3]. In addition, the figures for the inhibition result in assay [4] and in assay [1] were “Dose-dependent effect” and 88.8%, respectively.

With `C=C(C)[C@@H]1CC[C@H](C)[C@]12CC(=C(C)C)C(=O)O2`, in assay [1], the inhibition was below 65%. Turning to `C=C(C)[C@@H]1CC[C@](C)(O)[C@H]2CC[C@](C)(O)[C@H]2C1`, the inhibition in assay [1] was below 65%. On to `C=C(C)[C@H]1CC[C@@](C)(O)[C@H]2CC[C@](C)(O)[C@H]2C1`, for which the inhibition in assay [1] was below 65%.

As for `CC(C)=C1C[C@@H](O)[C@@](C)(O)CC[C@@H](O)/C(C)=C\C1=O` [HEYNEANONES C], the figures for the pIC50 in assay [2] and in assay [3] were 4.44 and 4.45, respectively. Also, the inhibition entry in assay [4] is “Dose-dependent effect”; in assay [1], 86.2%. In the case of `C=C(C)[C@@H]1CC[C@H](C)[C@@]12C=C(C(C)(C)O)C(=O)O2`, the inhibition in assay [1] was below 65%. Take `CC1=CC(=O)C(=C(C)C)C[C@@H]2[C@@](C)(O)CC[C@]12O` [AERUGIDIOL]: the pIC50 was 4.34 in assay [2] and 4.45 in assay [3]. Besides, the inhibition result in assay [4] is “Dose-dependent effect”; in assay [1] it was 87.5%. For `C=C1CC[C@H]2C(C)(C)CCC[C@]2(C)[C@H]1C/C=C(\C=O)CC(=O)O` [ZERUMIN A], the figures for the pIC50 in assay [2] and in assay [3] were 5.13 and 4.98, respectively. Further, the inhibition result is “Dose-dependent effect” in assay [4] and 96.7% in assay [1]. With `CC(C)=C1C[C@H]2[C@@H](CC[C@@]2(C)O)[C@@](C)(O)CC1=O`, the figures for the pIC50 in assay [2] and in assay [3] were 4.80 and 4.45, respectively. For the same compound, the inhibition entry in assay [4] was “Dose-dependent effect”; in assay [1], 86%. In the case of `C[C@H]1[C@H](C)CC[C@]2(C(=O)O)CC[C@]3(C)C(=CC[C@@H]4[C@@]5(C)CC[C@H](O)C(C)(C)[C@@H]5CC[C@]43C)[C@H]12` [URSOLIC ACID], the pIC50 in assay [2] was 5.62. Also, the inhibition in assay [1] was found to be 96.7%.

On to `C=C(C)[C@@H]1CC[C@@]2(C)[C@H](O)CC[C@@](C)(O)[C@@H]2C1`, for which, in assay [1], the inhibition is below 65%. As for `C=C(C)[C@H]1CC[C@H](C)[C@]12CC(=C(C)C)C(=O)O2`, the inhibition in assay [1] is below 65%. As for `CC1=CC(=O)[C@@]2(C[C@]3(O)[C@@H](C)CC[C@@H]13)OC2(C)C`, in assay [1], the inhibition is below 65%.

`C/C1=C/C(=O)/C(C(C)(C)O)=C\C=C(\C)C(=O)CC1`: the inhibition in assay [1] was below 65%.
